In patent US11390884B2, “Optimized CRISPR/cas9 systems and methods for gene editing in stem cells” (Editas Medicine, Inc., priority 2015, dated 2022):
Where two headings read alike, the source gives them in different places. Peptide text beside a SMILES is read from it. * marks the point of attachment. Cbz = O=C(OCc1ccccc1)*

Experiments:
HBB locus = assay: Gene editing at the HBB locus in cord blood CD34+ HSCs (T7E1, DNA sequencing); assay type: cell-based, human; conditions: CB CD34+, enhancer 18 hours before and 3 days after electroporation with D10A Cas9 RNP, HBB-8/HBB-15, Phx ssODN, UM171 35 nM, UM171/SR-1 35/40 nM, rapamycin 5 nM, OxPAPC 30 μg/mL, bafilomycin A1 1 μM, MG132 0.5 μM
From the text: Human CD34^+ HSCs cells were isolated from freshly obtained human umbilical cord blood by ficoll gradient density centrifugation followed by MACS® (antibody conjugated immunomagnetic bead sorting) with mouse anti-human CD34^+ immunomagnetic beads using the human CD34 cell enrichment kit and LS magnetic columns from Miltenyi Biotech. […] In the afternoon of day 3, 2.5 million CD34^+ cells per sample were suspended in electroporation buffer.
In vitro transcribed capped and tailed guide gRNAs HBB-8 and HBB-15 were added at a 2:1 molar ratio (total gRNA:Cas9 protein) to 12.5 μg D10A nickase ribonucleoprotein (RNP) (5 μg RNP per million cells) to each of two samples each containing 2.5 million CB CD34^+ cells. A third CB CD34^+ cell aliquot was mixed with 25 μg D10A nickase RNP and HBB gRNAs (total gRNA:D10A ratio at 2:1).
For all samples, the cells were collected from the cartridge and placed at 37° C. for 20 minutes (recovery period). For the CB CD34^+ HSCs that were contacted with 12.5 μg D10A nickase RNP, one sample was transferred to pre-warmed cytokine supplemented Stemspan-SFEM™ media and placed at 30° C. for 2 hours (cold shock samples) or placed directly into the same media at 37° C. For the cold shocked samples, the cells were transferred to the 37° C. incubator after the 2-hour incubation period at 30° C. […] Genomic DNA was extracted from the HSCs at 48 and 72 hours after electroporation and HBB locus-specific PCR reactions were performed. The purified PCR products were analyzed for insertions/deletions (indels) in T7E1 assays and by DNA sequencing of individual clones (PCR product was transformed and subcloned into TOPO-vector, individual colonies picked, and plasmid DNA containing individual PCR products were sequenced).
Gene editing at the HBB locus was then evaluated at 72 hours after electroporation of D10A nickase RNP co-delivered with 2 gRNAs (HBB-8 and HBB-15). Briefly, gDNA was isolated from electroporated CD34^+ cells at 72 hours after electroporation, and PCR amplification of a ˜607 bp fragment of the HBB locus (which captures both of the individual genomic locations that were targeted by gRNAs HBB-8 and HBB-15) was performed. After cleanup of the HBB PCR product with AMPURE beads, insertions/deletions (indels) at the targeted genomic location were evaluated by T7E1 assay and by DNA sequencing.
Human CD34^+ HSCs cells were isolated from freshly obtained human umbilical cord blood by ficoll gradient density centrifugation followed by MACS sorting with mouse anti-human CD34^+ immunomagnetic beads. […] In the afternoon of day 3, 2.2 million CD34^+ cells per sample were suspended in electroporation buffer.
In vitro transcribed capped and tailed guide gRNAs HBB-8 and HBB-15 were added at a 2:1 molar ratio (total gRNA:Cas9 protein) to 10 μg RNP per million cells.
For all samples, the cells were collected from the cartridge and placed at 37° C. for 20 minutes (recovery period).

human CB CD34^+ HSCs [1] = assay: Flow cytometry viability and stem cell phenotype of electroporated cord blood CD34+ cells
Description: (§1) For all samples, the cells were collected from the cartridge and placed at 37° C. for 20 minutes (recovery period). […] For the cold shocked samples, the cells were transferred to the 37° C. incubator after the 2-hour incubation period at 30° C.
(§2) For all samples, the cells were collected from the cartridge and placed at 37° C. for 20 minutes (recovery period). For the CB CD34^+ cells that were contacted with 10 μg D10A nickase RNP (per million cells), one sample was transferred to pre-warmed cytokine supplemented Stemspan-SFEM™ media and placed at 30° C. for 2 hours (cold shock recovery) or placed directly into the same media at 37° C. For the cold shocked samples, the cells were transferred to the 37° C. incubator after the 2-hour incubation period at 30° C.
(§3) CB CD34^+ cells were pre-treated with each of these stem cell viability enhancers (Table 19) for 18 hours prior to electroporation with D10A Cas9 RNP, HBB-8 and HBB-15 modified gRNAs, and 5′ and 3′ phosphorothioate-modified ssODN donor template. After electroporation, cells were replated into HSC medium containing these stem cell viability enhancers and cultured for an additional 3 days.

human CB CD34^+ HSCs [2] = tested on: human CB CD34^+ HSCs
Description: as §1, §2, §3

[3] = tested on: human mobilized peripheral blood CD34^+ HSCs; assay: Hematopoietic colony forming cell (CFC) assay in Methocult; assay type: cell-based; conditions: wild-type Cas9 and CCR5-U43 gRNA plasmid DNA; 40 nM UM171; two weeks
From the text: […]; 345(6203):1509-1512). […] […].
To evaluate maintenance of HSC potency and differentiation potential, two weeks after plating CD34^+ HSCs in CFC assays, hematopoietic activity was quantified based on scoring the HSC progeny by enumerating the total number of hematopoietic colony forming units (CFU) and the frequencies of specific blood cell phenotypes, including: mixed myeloid/erythroid (Granulocyte-erythroid-monocyte macrophage, CFU-GEMM), myeloid (CFU-macrophage (M), granulocyte-macrophage (CFU-GM)) and erythroid (CFU-E) colonies. […].
To evaluate maintenance of HSC potency and differentiation potential, two weeks after plating CD34^+ HSCs in CFC assays, hematopoietic activity was quantified based on scoring the HSC progeny by enumerating the total number of hematopoietic colony forming units (CFU) and the frequencies of specific blood cell phenotypes, including: mixed myeloid/erythroid (Granulocyte-erythroid-monocyte macrophage, CFU-GEMM), myeloid (CFU-macrophage (M), granulocyte-macrophage (CFU-GM)) and erythroid (CFU-E) colonies. […]. […] After Nucleofection™, cells were replated into Stemspan-SFEM supplemented with SCF, TPO, FL and UM171. After overnight incubation, HSCs were replated in Stemspan-SFEM™ plus cytokines alone without UM171.
To evaluate maintenance of HSC potency and differentiation potential, two weeks after plating CD34^+ HSCs in CFC assays, hematopoietic activity was quantified based on scoring the HSC progeny by enumerating the total number of hematopoietic colony forming units (CFU) and the frequencies of specific blood cell phenotypes, including: mixed myeloid/erythroid (Granulocyte-erythroid-monocyte macrophage, CFU-GEMM), myeloid (CFU-macrophage (M), granulocyte-macrophage (CFU-GM)) and erythroid (CFU-E) colonies. CD34^+ HSCs that were Nucleofected™ CD34^+ HSCs maintained CFC potential compared to un-Nucleofected™ HSCs (Table 14).

[4] = tested on: human mobilized peripheral blood CD34^+ HSCs; conditions: Nucleofection with wild type Cas9 and CCR5-U43 gRNA plasmid DNA; short-term 40 nM UM171
[5] = Homo sapiens, read-out: % Viability of CD34^+ stem cells

| Molecule | % HDR (HBB locus) [%] | % NHEJ (HBB locus) [%] | % Total Gene Editing (HBB locus) [%] | viability at 0.5 µM (human CB CD34^+ HSCs [1]; [5]) [%] | improvement in viability versus electroporated cells without pre-treatment (human CB CD34^+ HSCs [1]; CB CD34+, OxPAPC 30 μg/mL pre-treatment 18 hours) [%] | % Viability of CD34^+ stem cells (human CB CD34^+ HSCs [1]; CB CD34+, enhancer 18 hours before and 3 days after electroporation with D10A Cas9 RNP, HBB-8/HBB-15, Phx ssODN, UM171 35 nM, UM171/SR-1 35/40 nM, rapamycin 5 nM, OxPAPC 30 μg/mL, bafilomycin A1 1 μM, MG132 0.5 μM) [%] | % Viability of CD34^+ stem cells (human CB CD34^+ HSCs [2]) [%] | Number of colony forming units, E (erythroid) [3] | Number of colony forming units, G [3] | Number of colony forming units, GEMM [3] | Number of colony forming units, GM [3] | Number of colony forming units, M [3] | Number of colony forming units, Total [3] | Fold-change in the number of live CD34^+ HSCs (96 hours) [4] | viability at 0.005 µM (human CB CD34^+ HSCs [1]; [5]) [%] |
| --- | --- | --- | --- | --- | --- | --- | --- | --- | --- | --- | --- | --- | --- | --- | --- |
| CC(C)C[C@@H](C=O)NC(=O)[C@H](CC(C)C)NC(=O)[C@H](CC(C)C)NC(=O)OCc1ccccc1 [MG132, benzyl (S)-4-methyl-1-((S)-4-methyl-1-((S)-4-methyl-1-oxopentan-2-ylamino)-1-oxopentan-2-ylamino)-1-oxopentan-2-ylcarbamate, reference compound] (Cbz-Leu-Leu-Leu-aldehyde) | 0 | 0 | 0 | 19 |  |  |  |  |  |  |  |  |  |  |  |
| oxidized 1-palmitoyl-2-arachidonyl-sn-glycero-3-phosphorylcholine [OxPAPC, reference compound] | 7 | 71 | 78 |  | 20 | 64 |  |  |  |  |  |  |  |  |  |
| CO/C1=C\C(C)=C\[C@@H](C)[C@@H](O)[C@@H](C)C/C(C)=C/C=C/[C@H](OC)[C@@H]([C@@H](C)[C@@H](O)[C@H](C)[C@@]2(O)C[C@@H](O)[C@H](C)[C@@H](C(C)C)O2)OC1=O [Bafilomycin A1, reference compound] | 0 | 18 | 18 |  |  |  | 23 |  |  |  |  |  |  |  |  |
| Cn1nnc(-c2ccc3c(c2)[nH]c2nc(Cc4ccccc4)nc(N[C@H]4CC[C@H](N)CC4)c23)n1 [UM171, (1r,4r)-N1-(2-benzyl-7-(2-methyl-2H-tetrazol-5-yl)-9H-pyrimido[4,5-b]indol-4-yl)cyclohexane-1,4-diamine] | 0 | 79 | 79 |  |  |  |  | 92 colony forming units per 1500 CD34^+ HSCs plated | 40 colony forming units per 1500 CD34^+ HSCs plated | 20 colony forming units per 1500 CD34^+ HSCs plated | 32 colony forming units per 1500 CD34^+ HSCs plated | 64 colony forming units per 1500 CD34^+ HSCs plated | 228 colony forming units per 1500 CD34^+ HSCs plated | 1.5 |  |
| CO[C@H]1C[C@@H]2CC[C@@H](C)[C@@](O)(O2)C(=O)C(=O)N2CCCC[C@H]2C(=O)O[C@H]([C@H](C)C[C@@H]2CC[C@@H](O)[C@H](OC)C2)CC(=O)[C@H](C)/C=C(\C)[C@@H](O)[C@@H](OC)C(=O)[C@H](C)C[C@H](C)/C=C/C=C/C=C/1C [Rapamycin (sirolimus), Rapamycin, reference compound] | 7 | 46 | 53 |  |  |  |  |  |  |  |  |  |  |  | 52 |
